Assay [1] concerns the target T1, MAP kinase-activated protein kinase 2 (Homo sapiens, UniProt P49137). As to the kind of experiment: Inhibition of human MK2. Conditions: for pIC50: read-out: IC50; call rule not given here.
For assay [2], the system named is THP-1. The experiment in a line: Inhibition of LPS-stimulated TNFalpha production in human THP1 cells by ELISA. The assay is classed as functional, cell-based.
The target of assay [3] is T1, MAP kinase-activated protein kinase 2. As to the kind of experiment: Inhibition of MK2-mediated HSP27 phosphorylation by cell-based assay.

Molecules are shown by their SMILES. pEC50, pIC50: −log10 of the molar value.

T1 sequence (P49137 whole entry): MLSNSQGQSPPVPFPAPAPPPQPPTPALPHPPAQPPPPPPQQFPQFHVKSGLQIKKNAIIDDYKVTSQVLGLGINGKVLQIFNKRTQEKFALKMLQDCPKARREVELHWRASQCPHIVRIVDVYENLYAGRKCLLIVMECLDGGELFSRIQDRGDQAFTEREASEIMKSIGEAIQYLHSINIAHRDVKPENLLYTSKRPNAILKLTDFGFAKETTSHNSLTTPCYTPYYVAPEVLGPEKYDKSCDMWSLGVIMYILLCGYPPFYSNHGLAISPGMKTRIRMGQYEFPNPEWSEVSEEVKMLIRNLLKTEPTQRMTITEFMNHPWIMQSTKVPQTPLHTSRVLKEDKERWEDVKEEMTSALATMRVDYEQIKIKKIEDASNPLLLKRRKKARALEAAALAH

A word on the pIC50: it is the negative decadic logarithm of the IC50, by convention in mol/L. In general, pEC50 refers to the EC50 on a negative log10 scale, so that one unit is a factor of ten. In the case of `COc1ccncc1-c1ccccc1CN(C(=O)c1ccc(-c2ccc(C#N)cc2)o1)c1ccc(N2CCNCC2)cc1`, in assay [1], the pIC50 was 8.10. The negative logarithm of the EC50 (pEC50) in assay [2] was 6.51.

On to `COc1ccccc1-c1ccccc1CN(C(=O)c1ccc(-c2ccc(C#N)cc2)o1)c1ccc(N2CCNCC2)cc1`, for which, in assay [1], the pIC50 was 7.70. In assay [2], this molecule showed a pEC50 of 5.71. Regarding `N#Cc1ccc(-c2ccc(C(=O)N(Cc3ccccn3)C3CCNCC3)o2)cc1`, the pIC50 in assay [1] was 5.00. Same read-out and setting: in the case of `COc1ccc(-c2ccccc2CN(C(=O)c2ccc(-c3ccc(C#N)cc3)o2)c2ccc(N3CCNCC3)cc2)cn1` it was 7.37. Turning to `COc1ccccc1-c1ncccc1CN(C(=O)c1ccc(-c2ccc(C#N)cc2)o1)c1ccc(N2CCNCC2)cc1`, the negative-log IC50 (pIC50) in assay [1] was 7.92. In assay [2], this molecule had a pEC50 of 6.13. As to `COc1cc(-c2ccccc2CN(C(=O)c2ccc(-c3ccc(C#N)cc3)o2)c2ccc(N3CCNCC3)cc2)ccn1`, the negative-log IC50 (pIC50) in assay [1] is 7.62.

In the case of `N#Cc1ccc(-c2ccc(C(=O)N(Cc3cccc(-c4ccccc4F)c3)c3ccc(N4CCNCC4)cc3)o2)cc1`, in assay [1], the negative-log IC50 (pIC50) was 5.84. Still for that read-out and setting: in the case of `N#Cc1ccc(-c2ccc(C(=O)N(Cc3ccccn3)c3ccc(N4CCNCC4)cc3)o2)cc1` it was 6.94. As to `Cc1noc(C)c1-c1ccccc1CN(C(=O)c1ccc(-c2ccc(C#N)cc2)o1)c1ccc(N2CCNCC2)cc1`, the pIC50 in assay [1] is 7.68. Also, in assay [2], the pEC50 was 5.75. Take `N#Cc1ccc(-c2ccc(C(=O)N(Cc3ccccc3-c3cncnc3)c3ccc(N4CCNCC4)cc3)o2)cc1`: the negative-log IC50 (pIC50) in assay [1] is 7.57. The same molecule had a negative logarithm of the EC50 (pEC50) in assay [2] of 6.06. In the same order, the values of `COc1cncc(-c2ccccc2CN(C(=O)c2ccc(-c3ccc(C#N)cc3)o2)c2ccc(N3CCNCC3)cc2)c1` are 7.70 and 5.74. Regarding `CN1CCN(CCCN(Cc2ccccn2)C(=O)c2ccc(-c3ccc(C#N)cc3)o2)CC1`, the pIC50 in assay [1] is 5.00. In the case of `Cc1ccccc1-c1ccccc1CN(C(=O)c1ccc(-c2ccc(C#N)cc2)o1)c1ccc(N2CCNCC2)cc1`, the negative-log IC50 (pIC50) in assay [1] is 6.55. Take `O=C(c1ccc(-c2ccc(Cl)cc2)o1)N(Cc1ccccn1)c1ccc(N2CCNCC2)cc1`: the pIC50 in assay [1] was 6.96. For the same molecule, the negative-log EC50 (pEC50) in assay [2] is 5.30; in assay [3], 6.46. As for `N#Cc1ccc(-c2ccc(C(=O)N(Cc3ccccc3-c3ccc(C#N)cc3)c3ccc(N4CCNCC4)cc3)o2)cc1`, the negative-log IC50 (pIC50) in assay [1] was 8.10. This molecule also had a pEC50 in assay [2] of 5.53. For `N#Cc1ccc(-c2ccc(C(=O)N(Cc3ccccc3-c3cccc(C#N)c3)c3ccc(N4CCNCC4)cc3)o2)cc1`, the pIC50 in assay [1] was 7.72. In assay [2], this molecule showed a pEC50 of 5.80. In the case of `N#Cc1ccc(-c2ccc(C(=O)N(Cc3ccccc3-c3ccccc3F)c3ccc(N4CCNCC4)cc3)o2)cc1`, in assay [1], the negative logarithm of the IC50 (pIC50) was 7.92. `N#Cc1ccc(-c2ccc(C(=O)N(Cc3ccc(-c4ccccc4F)cc3)c3ccc(N4CCNCC4)cc3)o2)cc1`: in assay [1], the negative-log IC50 (pIC50) is 5.72. For the molecule `N#Cc1ccc(-c2ccc(C(=O)N(Cc3ccccc3-c3ccncc3)c3ccc(N4CCNCC4)cc3)o2)cc1`, in assay [1], the pIC50 is 7.92. For the same molecule, in assay [2], the negative-log EC50 (pEC50) is 5.08. Regarding `N#Cc1ccc(-c2ccc(C(=O)N(Cc3cccc(-c4ccncc4)c3)c3ccc(N4CCNCC4)cc3)o2)cc1`, in assay [1], the pIC50 is 6.96. `N#Cc1ccc(-c2ccc(C(=O)N(Cc3ccccc3-c3ccccc3)c3ccc(N4CCNCC4)cc3)o2)cc1`: the pIC50 in assay [1] is 8.05. Also, the pEC50 in assay [2] was 5.46. Consider `N#Cc1ccc(-c2ccc(C(=O)N(Cc3ccccc3-c3ccccc3)c3ccc(N4CCNCC4)cc3)o2)cn1`, for which the negative-log IC50 (pIC50) in assay [1] is 6.59. Still for that read-out and setting: in the case of `N#Cc1ccc(-c2ccc(C(=O)N(Cc3cccnc3-c3cncnc3)c3ccc(N4CCNCC4)cc3)o2)cc1` it was 7.00; in that of `N#Cc1ccc(-c2ccc(C(=O)N(Cc3ccccc3-c3cccnc3)c3ccc(N4CCNCC4)cc3)o2)cn1`, 6.75. Turning to `Cc1cccc(CN(C(=O)c2ccc(-c3ccc(Cl)cc3)o2)c2cccc(N3CCNCC3)c2)n1`, the IC50 entry in assay [1] is “Not Active”.

As to `COc1ccncc1-c1ncccc1CN(C(=O)c1ccc(-c2ccc(C#N)cc2)o1)c1ccc(N2CCNCC2)cc1`, in assay [1], the negative-log IC50 (pIC50) was 8.05. The molecule further showed a pEC50 in assay [2] of 5.80. Consider `N#Cc1ccc(-c2ccc(C(=O)N(Cc3ccccc3-c3ccccn3)c3ccc(N4CCNCC4)cc3)o2)cc1`, for which the pIC50 in assay [1] was 7.85. For the same molecule, the pEC50 in assay [2] is 5.60. As for `Cc1cccc(CN(C(=O)c2ccc(-c3ccc(C#N)cc3)o2)c2ccc(N3CCNCC3)cc2)n1`, the pIC50 in assay [1] is 7.10. Same read-out and setting: in the case of `O=C(c1ccc(-c2ccc(Cl)cc2)o1)N(Cc1ccccn1)C1CCC(N2CCNCC2)CC1` (centres undefined) it was 5.32. As for `Cc1cccc(CN(C(=O)c2ccc(-c3ccc(Cl)cc3)o2)c2ccccc2N2CCNCC2)n1`, the IC50 result in assay [1] was “Not Active”. Take `Cc1cccc(C)c1-c1ccccc1CN(C(=O)c1ccc(-c2ccc(C#N)cc2)o1)c1ccc(N2CCNCC2)cc1`: the pIC50 in assay [1] was 6.59.

On to `COc1ncc(-c2ccccc2CN(C(=O)c2ccc(-c3ccc(C#N)cc3)o2)c2ccc(N3CCNCC3)cc2)cn1`, for which, in assay [1], the pIC50 was 7.28. With `N#Cc1ccc(-c2ccc(C(=O)N(Cc3ccc(-c4ccccc4)cc3)c3ccc(N4CCNCC4)cc3)o2)cc1`, in assay [1], the pIC50 was 7.39. The molecule further gave a negative-log EC50 (pEC50) in assay [2] of 5.17. In the same order, the values of `N#Cc1ccc(-c2ccc(C(=O)N(Cc3ccccc3-c3cccnc3)c3ccc(N4CCNCC4)cc3)o2)cc1` are 8.05 and 5.91. As to `N#Cc1ccc(-c2ccc(C(=O)N(Cc3ccc(-c4ccncc4)cc3)c3ccc(N4CCNCC4)cc3)o2)cc1`, the pIC50 in assay [1] is 6.89. With `COc1cccc(-c2ccccc2CN(C(=O)c2ccc(-c3ccc(C#N)cc3)o2)c2ccc(N3CCNCC3)cc2)c1`, the pIC50 in assay [1] is 7.92. Consider `N#Cc1ccc(-c2ccc(C(=O)N(Cc3cccc(-c4ccccc4)c3)c3ccc(N4CCNCC4)cc3)o2)cc1`, for which the pIC50 in assay [1] was 7.15. The pEC50 in assay [2] was 4.55.

The values are drawn from ChEMBL document CHEMBL1938266, “A three-step protocol for lead optimization: quick identification of key conformational features and functional groups in the SAR studies of non-ATP competitive MK2 (MAPKAPK2) inhibitors” (Bioorg Med Chem Lett, 2012).
